Data: the NIST ThermoML archive (doi:10.1016/j.tca.2014.03.027)

Legend:
[1] = molar heat capacity at constant pressure; details: 298.15 K; 101.33 kPa; Liquid; Small sample (50 mg) DSC
[2] = xn = mol fraction of the nth substance listed; details: 101 kPa, Liquid, Small sample (50 mg) DSC
[3] = 298.15 K; 101.33 kPa; Liquid; Vibrating tube method

CCCO [propan-1-ol]
Details	molar heat capacity at constant pressure [J/K/mol]
[1]	143.41

CCCCCO [pentan-1-ol]
Details	molar heat capacity at constant pressure [J/K/mol]
[1]	206.67

CCCCCCC [heptane]
Details	molar heat capacity at constant pressure [J/K/mol]
[1]	223.91

NCc1ccccc1 [benzylamine] + CCCO
excess molar heat capacity [J/K/mol], [2]
Details	293.15 K	298.15 K	308.15 K
x2 = 0.0665	1.89	2.55	2.84
x2 = 0.1004	2.96	3.37	3.45
x2 = 0.1986	6.26	6.74	6.5
x2 = 0.2994	9.38	9.67	9.53
x2 = 0.4007	11.35	11.45	11.18
x2 = 0.4477	11.83	11.95	11.58
x2 = 0.5497	13.34	13.25	12.85
x2 = 0.6032	13.04	12.99	12.57
x2 = 0.6515	12.75	12.91	12.84
x2 = 0.6998	12.05	12.14	11.7
x2 = 0.8014	9.42	9.48	9.06
x2 = 0.849	7.29	7.32	7.22
x2 = 0.9003	4.9	5.05	4.75

NCc1ccccc1 [benzylamine] + CCCCCCC
[2], 293.15 K
Details	excess molar heat capacity [J/K/mol]
x1 = 0.1982	0.78
x1 = 0.2473	1.66
x1 = 0.2989	3.35
x1 = 0.3496	4.17
x1 = 0.3734	4.88
x1 = 0.3986	5.87
x1 = 0.4976	6.51
x1 = 0.5988	5.47
x1 = 0.6983	3.47
x1 = 0.7991	1.46

NCc1ccccc1 [benzylamine] + CO
excess molar heat capacity [J/K/mol], [2]
Details	293.15 K	298.15 K	308.15 K
x2 = 0.0537	1.16	1.26	1.59
x2 = 0.1106	2.61	2.84	3.36
x2 = 0.2041	5.02	5.43	6.08
x2 = 0.2963	7.9	8.16	8.87
x2 = 0.3518	9.32	9.77	10.2
x2 = 0.397	10.86	11.3	11.89
x2 = 0.4966	12.24	12.88	13.26
x2 = 0.5512	12.66	13.17	13.67
x2 = 0.5987	12.63	12.99	13.38
x2 = 0.6991	10.63	11.13	11.55
x2 = 0.7484	9.18	9.49	10
x2 = 0.7988	7.43	7.67	8.28
x2 = 0.849	4.92	5.29	5.72
x2 = 0.9009	3.22	3.49	3.8

NCc1ccccc1 [benzylamine]
Details	mass density [kg/m3]	molar heat capacity at constant pressure [J/K/mol]
[1]	–	206.74
[3]	978.337	–

NCc1ccccc1 [benzylamine] + CCCCCO
excess molar heat capacity [J/K/mol], [2]
Details	293.15 K	298.15 K	308.15 K
x2 = 0.0495	2.15	2.31	2.12
x2 = 0.1528	5.18	5.79	5.71
x2 = 0.2765	8.64	8.73	8.42
x2 = 0.2967	9.27	9.48	8.89
x2 = 0.4512	12.51	12.28	11.2
x2 = 0.4994	13.7	13.25	12.08
x2 = 0.6006	13.71	13.13	11.91
x2 = 0.6516	12.63	12.04	10.9
x2 = 0.7019	11.57	10.98	9.9
x2 = 0.7998	9.04	8.54	7.76
x2 = 0.8493	7.39	7.06	6.31
x2 = 0.899	5.41	5.16	4.6
x2 = 0.9505	2.72	2.46	2.3

CO [methanol]
Details	molar heat capacity at constant pressure [J/K/mol]
[1]	80.81
